{"source": "patent US11154515B2", "about": "“Pharmaceutical compositions comprising cannabidiol and beta-caryophyllene and methods for their use” (priority 2017, dated 2021)", "key": {"[1]": {"tested_on": "OXA-induced ear edema, ACD mouse model", "test": "Oxazolone-induced allergic contact dermatitis model, ear edema", "assay_type": "in vivo", "settings": "for OXA-induced edema formation: topically applied 1 μM", "method": "Prednisolone was solved in 1:1 of DMSO/saline and was administered topically (15-15 μL to the inner and outer surface of the ears). All other test compounds were solved in 96% ethanol. All solutions of all the concentrations were prepared freshly on the first day of every experiment and were stored at 4° C., then shaken properly before the treatments.\nAnesthesia was induced by ketamine (Richter Gedeon, Budapest, Hungary) (100 mg/kg i.p., repeated as required) with xylazine (Lavet Ltd., Budapest, Hungary) (5 mg/kg i.m.). Animals were sensitized on two consecutive days by painting 2% oxazolone (50-50 μL, Merck KGaA) on the shaved abdomen. On the 6th day the right ears were smeared with 2% oxazolone (OXA) dissolved in 96% ethanol: 15-15 μL solution was applied on each of the inner and outer surfaces. Control ears were treated with 96% ethanol in the same way. Drug-treated groups were treated with 15-15 μL of drug solution smeared to the inner and outer side of the ears every 4 hrs of the experiment after oxazolone treatment. A schematic of the experimental protocol is provided in FIG. 24 and the experimental groups are defined below. • (a) Group 1: Ethanol-treated Controls: left ear: 96% ethanol, right ear: 2% oxazolone • (b) Group 2: 1 μM CBD • (c) Group 3: 10 μM CBD • (d) Group 4: 1 μM HU101 • (e) Group 5: 10 μMHU101\nEar thickness was measured with an engineer's micrometer, with 0.1 mm accuracy, before challenge with test agents and after the challenge at different time points. Data are expressed as % increase of ear thickness compared to the initial values.\nResults are expressed as mean±SEM. Comparisons between different treatment groups were performed using two-way ANOVA followed by Sidak's post hoc test for skin thickness and one-way ANOVA followed by Bonferroni's post hoc test for MPO and vascular leakage. * p<0.05 was considered to be significant."}, "RAW-Blue™ cells": {"tested_on": "RAW-Blue™ cells", "test": "MTT cell viability assay, RAW-Blue™ cells", "settings": "CBD 30 μM; BCP 300 μM"}}}
{"smiles": "C=C(C)[C@@H]1CCC(C)=C[C@H]1c1c(O)cc(CCCCC)cc1O", "note": "[CBD, cannabidiol]", "values": [{"measurement": "Effect in ACD mouse model, significance of ear edema difference", "setting": "[1]; OXA + CBD 1 μM vs. OXA + CBD 10 μM, 56 h", "result": "* (* p ≤ 0.05)"}, {"measurement": "Effect in ACD mouse model, significance of ear edema difference", "setting": "[1]; OXA vs. OXA + CBD 1 μM, 24 h", "result": "** (** p ≤ 0.01)"}, {"measurement": "OXA-induced edema formation", "setting": "[1]; 24 hr time-point", "result": "significantly prevented"}, {"measurement": "OXA-induced edema formation", "setting": "[1]; later time-points", "result": "only minor"}, {"measurement": "anti-inflammatory effect on OXA-induced edema", "setting": "[1]; topically applied 10 μM", "result": "did not exert any anti-inflammatory effect"}, {"measurement": "toxicity (as determined by MTT assay)", "setting": "RAW-Blue™ cells", "result": "appeared to induce toxicity"}]}
